In US10258291B2, “Systems and methods for evaluation of neuropathologies” (The Regents of the University of California, priority 2012, dated 2019):
“Also recorded” adds a separate entry of the source.

Columns and labels:
[1] = system: rhesus macaques (Macaca mulatta); test: Mismatch negativity (MMN) ERP in macaque EEG, auditory oddball paradigm, under ketamine, saline and 5 h post-ketamine; assay type: in vivo
Text: (§1) In exemplary implementations of the disclosed technology to assess the efficacy of a treatment for a neuropsychiatric disorder, two adult male rhesus macaques (Macaca mulatta), e.g., 6 and 7 years old, were used. All procedures and animal care were approved by the Salk Institute Animal Care and Use Committee and carried out in accordance with the US National Institutes of Health Guide for the Care and Use of Laboratory Animals.
(§2) The exemplary stimuli presentation structure included a passive auditory intensity oddball paradigm to present different intensity tones to subjects sitting in an isolated, dimly lit room during the implementations. For example, the auditory stimuli included 100 ms (e.g., 10 ms rise/fall) pure sinusoidal tones (e.g., 1500 Hz) of either a low or a high intensity. Frequent (standard) and infrequent (deviant) stimuli were presented 80% and 20% of the time, respectively, as depicted in FIG. 4. The inter-stimulus interval was 700 ms. For example, twelve hundred standard and three hundred deviant stimuli were presented in each recording session. For example, both high-deviant (e.g., low-standard) and low-deviant (e.g., high-standard) conditions were used, e.g., to allow comparison of the responses to identical stimuli (e.g., low or high) in different contexts (e.g., standard or deviant).
(§3) For example, EEG scalp recordings were acquired with the Vision Recorder software using a BrainAmpMR system. An exemplary custom-designed 22-channel NHP EEG cap with AgCl electrodes was developed and used for the non-human primate subject data collection (e.g., PCB Ribbon Cable for BrainCap-MR with 5 k resistors; BrainCap MR Box 1.2; sintered ring electrodes with 1.5 mm touchproof safety socket termination and 120 cm heavy-duty leadwire).
(§4) The exemplary EEG data collection technique for the NHP subjects included the following preparation steps. […]
(§5) The exemplary EEG data was analyzed using Analyzer 2.0 software. […]

[2] = system: rhesus macaques (Macaca mulatta); test: P300 (P3) ERP in macaque EEG, auditory oddball paradigm, under ketamine, saline and 5 h post-ketamine; assay type: in vivo
Text: as §1, §2, §3, §4, §5

[3] = ketamine, saline, 5 h post-ketamine

**Q.** With `CNC1(c2ccccc2Cl)CCCCC1=O` (stereo not drawn) [ketamine] as the molecule, how does the “Effect of ketamine on MMN 5 h after infusion” value ([1]; 5 h-post ketamine vs. saline F(1,290)=0.20, p=0.652, ketamine vs. 5 h-post ketamine F(1,403)=7.97, p=0.005) read?
**A.** no longer significant; also recorded: full recovery

**Q.** And the “MMN amplitude, ketamine vs. saline” value ([1]; acute subanesthetic ketamine infusion 1 mg/Kg, vs. vehicle saline, F(1,290)=4.47, p=0.035, Cz electrode)?
**A.** significant reduction

**Q.** What about the “MMN latency differences across conditions” value [1, 3] of the same molecule?
**A.** No significant latency differences

**Q.** What about the “Effect of ketamine on P300 (P3) 5 h after infusion” value ([2]; 5 h-post ketamine vs. saline F(1,301)=0.06, p=0.803, ketamine vs. 5 h-post ketamine F(1,411)=44.34, p=0.000) of the same molecule?
**A.** no longer significant; also recorded: full recovery

**Q.** What about the “P300 amplitude, ketamine vs. saline” value ([2]; acute subanesthetic ketamine infusion 1 mg/Kg, vs. vehicle saline, F(1,301)=27.73, p=0.000, Cz electrode) of the same molecule?
**A.** significant reduction

**Q.** What about the “P300 latency differences across conditions” value [2, 3] of the same molecule?
**A.** No significant latency differences
